Where two headings read alike, the source gives them in different places.
Biological target: hT2R8 (Homo sapiens (Human), UniProt Q9NYW2)
Experiment: hT2R8 antagonist high-throughput FLIPR assay, stable cell line with G16g44, agonist andrographolide
Type: cell-based
Excerpt: After a ligand is identified for a particular hT2R, a HEK293 cell line stably expressing both the hT2R and G16gust44 are generated, facilitating future screening assays to identify other ligands that activate the particular hT2R or which modulate (block or enhance) the activation of this hT2R by another bitter ligand such as a bitter compound contained in coffee. This avoids the need for transient transfection.
(§1) To identify antagonists, cell lines stably expressing hT2R8 and hT2R14, respectively, together with the promiscuous chimeric G16g44 protein were generated as described in previous patent applications. A high-throughput assay was established using the stable cell lines and FLIPR (Fluorescent Imaging Plate Reader). An agonist of hT2R8 or hT2R14 was used to activate the receptors up to 70-80% of their respective maximal activity. For hT2R8, the agonist used was andrographolide (200 λM); for hT2R14, it was aristolochic acid (3 μM). To identify antagonists, compounds with diverse chemical structures were added together with the agonist.
as §1, with “hT2R8” for “hT2R8 and hT2R14, respectively,”, “hT2R8” for “hT2R8 or hT2R14”, “(200” for “(200 λM); for hT2R14, it was aristolochic acid (3”

[1] = read-out: IC50 on hT2R8 bitter receptor
[2] = table after Example 10-97, read-out: hT2R8 IC50
[3] = table after Example 12-37, read-out: hT2R8 IC50

Sequence of hT2R8 (Q9NYW2 whole entry): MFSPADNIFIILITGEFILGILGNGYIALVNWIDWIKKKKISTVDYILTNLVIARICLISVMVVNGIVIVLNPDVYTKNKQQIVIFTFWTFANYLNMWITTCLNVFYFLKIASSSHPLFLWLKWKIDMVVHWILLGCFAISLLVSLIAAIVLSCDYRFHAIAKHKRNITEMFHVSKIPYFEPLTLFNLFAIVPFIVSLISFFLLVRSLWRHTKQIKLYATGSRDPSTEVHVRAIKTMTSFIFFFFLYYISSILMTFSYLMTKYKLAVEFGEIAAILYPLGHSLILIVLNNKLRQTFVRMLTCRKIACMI

IC50 [1] [µM] | IC50 (Table A, read-out: hT2R8 IC50) [µM] | SMILES | other results
0.51 | – | Cc1noc(C)c1Cn1cc(N2C(=O)NC(Cc3ccc(O)c(O)c3)C2=O)cn1 (stereo not shown) [Example 10-60, 5-(3,4-dihydroxybenzyl)-3-(1-((3,5-dimethylisoxazol-4-yl)methyl)-1H-pyrazol-4-yl)imidazolidine-2,4-dione] | IC50 [2]: 0.513 µM
0.7 | – | Cc1noc(C)c1Cn1cc(NC(=O)/C=C/c2ccccc2)cn1 [Example 4-15, N-(1-((3,5-dimethylisoxazol-4-yl)methyl)-1H-pyrazol-4-yl)cinnamamide] | –
0.7 | – | COc1cc(C(=O)Nc2cnn(Cc3c(C)noc3C)c2)cc2c1OCCO2 [Example 4-93, N-(1-((3,5-dimethylisoxazol-4-yl)methyl)-1H-pyrazol-4-yl)-8-methoxy-2,3-dihydrobenzo[b][1,4]dioxine-6-carboxamide] | –
– | – | COC(=O)c1cccc(CN2C(=O)N(c3cnn(Cc4c(C)noc4C)c3)C(=O)C2(C)C)c1 [Example 12-55] | IC50 [3]: 0.22 µM
– | 1.4 | Cc1noc(C)c1Cn1cc(NC(=O)c2ccc3occc3c2)cn1 [Example 4-77, N-(1-((3,5-dimethylisoxazol-4-yl)methyl)-1H-pyrazol-4-yl)benzofuran-5-carboxamide] | –
0.41 | – | Cc1noc(C)c1Cn1cc(N2C(=O)CN(CCc3ccc(O)cc3)C2=O)cn1 [Example 10-86, 3-(1-((3,5-dimethylisoxazol-4-yl)methyl)-1H-pyrazol-4-yl)-1-(4-hydroxyphenethyl)imidazolidine-2,4-dione] | IC50 [2]: 0.412 µM
– | 0.6 | Cc1noc(C)c1Cn1cc(NC(=O)c2ccc3[nH]nnc3c2)cn1 [Example 4-87, N-(1-((3,5-dimethylisoxazol-4-yl)methyl)-1H-pyrazol-4-yl)-1H-benzo[d][1,2,3]triazole-5-carboxamide] | –
– | 0.5 | CCC(C(=O)Nc1cnn(Cc2c(C)noc2C)c1)c1ccccc1 (stereo not shown) [Example 4-37, N-(1-((3,5-dimethylisoxazol-4-yl)methyl)-1H-pyrazol-4-yl)-2-phenylbutanamide] | –
– | – | COc1ccc(CN2C(=O)N(c3cnn(Cc4c(C)noc4C)c3)C(=O)C2(C)C)cc1C [Example 12-76, 3-(1-((3,5-dimethylisoxazol-4-yl)methyl)-1H-pyrazol-4-yl)-1-(4-methoxy-3-methylbenzyl)-5,5-dimethylimidazolidine-2,4-dione] | IC50 [3]: 0.54 µM
– | – | Cc1ccc(CN2CC(=O)N(c3cnn(Cc4c(C)noc4C)c3)C2=O)cc1 [Example 10-30, 3-(1-((3,5-dimethylisoxazol-4-yl)methyl)-1H-pyrazol-4-yl)-1-(4-methylbenzyl)imidazolidine-2,4-dione] | IC50 [2]: 0.065 µM; IC50 (unit uM, read-out: IC50 on hT2R08 bitter receptor): 0.06 µM
– | 12.6 | COc1cccc(CN(Cc2cccc(OC)c2OC)c2cnn(Cc3c(C)noc3C)c2)c1OC [Example 4-64, N,N-bis(2,3-dimethoxybenzyl)-1-((3,5-dimethylisoxazol-4-yl)methyl)-1H-pyrazol-4-amine] | –
– | 1.95 | Cc1cccc(C(=O)Nc2cnn(Cc3c(C)noc3C)c2)n1 [Example 4-48, N-(1-((3,5-dimethylisoxazol-4-yl)methyl)-1H-pyrazol-4-yl)-6-methylpicolinamide] | –
1.4 | – | Cc1noc(C)c1Cn1cc(N2C(=O)CN(CC3CCCO3)C2=O)cn1 (stereo not shown) [Example 10-73] | IC50 [2]: 1.36 µM
0.03 | – | Cc1noc(C)c1Cn1cc(N2C(=O)[C@H]3Cc4ccc(O)cc4CN3C2=O)cn1 [Example 13-2, (R)-2-(1-((3,5-dimethylisoxazol-4-yl)methyl)-1H-pyrazol-4-yl)-7-hydroxy-10,10a-dihydroimidazo[1,5-b]isoquinoline-1,3(2H,5H)-dione] | –
– | – | COc1ccccc1CCN1C(=O)N(c2cnn(Cc3c(C)noc3C)c2)C(=O)C1(C)C [Example 12-58, 3-(1-((3,5-dimethylisoxazol-4-yl)methyl)-1H-pyrazol-4-yl)-1-(2-methoxyphenethyl)-5,5-dimethylimidazolidine-2,4-dione] | IC50 [3]: 0.24 µM

— patent US9247759B2, “Identification of human T2R receptors that respond to bitter compounds that elicit the bitter taste in compositions, and the use thereof in assays to identify compounds that inhibit (block) bitter taste in compositions and use thereof” (SENOMYX, INC., priority 2007, dated 2016)
